For assay [1], the target named is T1, intracellular CK2α (Homo sapiens, UniProt P19784).
T1 construct: host or cells: HCT116 (ATCC CCL-247)
As to the kind of experiment: Cell-based NanoBRET assay for inhibitor binding to intracellular CK2α. Particulars: HCT116 cells transiently transfected with CSNK2A2-NanoLuc fusion vector; Tracer K-5; 2 h; read-out: Assay 3: NanoBRET ™ assay for binding to intracellular CK2α. Here is the method: This assay used the NanoBRET™ System (Promega), an energy transfer technique designed to measure molecular proximity in living cells. The assay measured the apparent affinity of test compounds by competitive displacement of a NanoBRET™ tracer reversibly bound to a NanoLucR luciferase CK2α fusion protein in cells. A fixed concentration of tracer was added to cells expressing the desired NanoLucR-CK2α fusion protein to generate a BRET reporter complex. […] Donor emission wavelength (450 nm) and acceptor emission wavelength (610 nm or 630 nm) were measured on the Envision (Perkin-Elmer) and BRET ratio calculated for data analysis: BRET Ratio=(Acceptorsample/Donorsample)×1,000. • 7.

Assay [2] concerns the target T2, CK2α (Homo sapiens, UniProt P68400).
T2 construct: CK2α (residues 2-329) was produced in Escherichia coli BL21 (DE3) for kinase activity screening; His6 (N, cleaved yes); made in house; host or cells: Escherichia coli BL21 (DE3)
T2 sequence (P68400 2-329): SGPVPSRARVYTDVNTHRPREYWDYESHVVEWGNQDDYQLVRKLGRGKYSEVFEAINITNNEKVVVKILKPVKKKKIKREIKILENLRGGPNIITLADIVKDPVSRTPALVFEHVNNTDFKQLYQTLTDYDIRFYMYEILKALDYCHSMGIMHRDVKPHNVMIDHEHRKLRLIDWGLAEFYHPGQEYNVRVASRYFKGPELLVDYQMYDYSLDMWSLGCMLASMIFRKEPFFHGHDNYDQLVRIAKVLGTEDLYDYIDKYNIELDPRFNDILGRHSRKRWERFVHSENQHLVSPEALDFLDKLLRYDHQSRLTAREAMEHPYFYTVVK
As to the kind of experiment: Biochemical assay for inhibitors of CK2α kinase activity (ADP-Glo). Conditions: 0.2 nM CK2α, 50 μM peptide substrate, 15 μM ATP, read-out: Assay 1: CK2α Enzyme IC50. The method, then:
The inhibitory activity of putative kinase inhibitors and the potency of selected compounds were determined using ADP-Glo™ assay. The kinase reaction was performed in the presence of excess peptide substrate and ATP at a concentration equivalent to Km. Upon termination of the kinase reaction, remaining ATP was depleted leaving only ADP reaction product, which was converted back to ATP with a coupled luciferin/luciferase reaction. The luminescent output from the coupled reaction was quantified and correlated with the kinase activity. […] Single colonies of the cells were grown in 6×1 L of 2×TY with 100 μg/mL ampicillin at 37° C. […] The cells were incubated overnight at 25° C. then harvested by centrifugation at 4,000 g for 20 minutes. The cell pellets were suspended in 20 mM Tris, 500 mM NaCl, pH 8.0 and lysed using a high pressure homogenizer. Protease inhibitor cocktail tablets (one tablet per 50 mL extract; Roche Diagnostics) and DNase I were then added. The crude cell extract was then centrifuged at 10,000 g for 45 minutes, the supernatant was filtered with a 0.22 μm filter. The soluble supernatant was applied on a Ni Sepharose Fast Flow6 column at pH 8.0, washed and eluted in 20 mM Tris pH 8.0, 500 mM NaCl, 200 mM imidazole. […] The cleaved protein was further purified on a Sepharose Q HP anion-exchange column and the main peak fraction from this column was further purified by gel filtration on a Superdex 75 16/60 HiPrep column equilibrated with Tris 20 mM, pH 8.0, 500 mM NaCl. Pure protein was concentrated to 15 mg/mL and flash frozen in liquid nitrogen. […] The assay was conducted as follows: • 1. […] After 120 minutes, the reaction was stopped by addition of 5 pl ADP-Glo reagent (Promega V9102) and the plate incubated at RT for a further 60 minutes. • 5. 10 μL of Kinase Detection reagent (Promega V9102) was added to assay plate and incubated for a further 30 minutes prior to reading luminescence on an Envision (Perkin-Elmer). Data was analysed to calculate compound IC50and Ki as follows: • 1. […] Percent activity was calculated for each well using: (Test well reading−MEAN100%inhibition control wells)/(MEAN0% inhibition control wells−MEAN100%inhibition control wells). • 5. Morrison Ki was determined using Morrison Ki equation (XL-fit).
A general note: ADP-Glo turns the ADP formed in a reaction into a luminescent signal.

Assay [3] addresses T3, CLK2 (Homo sapiens, UniProt P49760).
T3 construct: purchased Carna Biosciences 04-127
As to the kind of experiment: Biochemical assay for inhibitors of CLK2 kinase activity (ADP-Glo). Particulars: 20 nM CLK2, 50 μM peptide substrate, 100 μM ATP, read-out: Assay 2: CLK2 Enzyme IC50. The method, then: The inhibitory activity of putative kinase inhibitors and the potency of selected compounds were determined using ADP-GloTM assay. The kinase reaction was performed in the presence of excess peptide substrate and ATP at a concentration equivalent to Km. Upon termination of the kinase reaction, remaining ATP was depleted leaving only ADP reaction product, which was converted back to ATP with a coupled luciferin/luciferase reaction. The luminescent output from the coupled reaction was quantified and correlated with the kinase activity. […] The assay was conducted as follows: • 1. […] After 120 minutes, the reaction was stopped by addition of 5 pl ADP-Glo reagent (Promega V9102) and the plate incubated at RT for a further 60 minutes. • 5. 10 μL of Kinase Detection reagent (Promega V9102) was added to assay plate and incubated for a further 30 minutes prior to reading luminescence on an Envision (Perkin-Elmer). Data was analysed to calculate compound IC50and Ki as follows: • 1. […] Morrison Ki was determined using Morrison Ki equation (XL-fit).

T1 sequence (P19784 whole entry): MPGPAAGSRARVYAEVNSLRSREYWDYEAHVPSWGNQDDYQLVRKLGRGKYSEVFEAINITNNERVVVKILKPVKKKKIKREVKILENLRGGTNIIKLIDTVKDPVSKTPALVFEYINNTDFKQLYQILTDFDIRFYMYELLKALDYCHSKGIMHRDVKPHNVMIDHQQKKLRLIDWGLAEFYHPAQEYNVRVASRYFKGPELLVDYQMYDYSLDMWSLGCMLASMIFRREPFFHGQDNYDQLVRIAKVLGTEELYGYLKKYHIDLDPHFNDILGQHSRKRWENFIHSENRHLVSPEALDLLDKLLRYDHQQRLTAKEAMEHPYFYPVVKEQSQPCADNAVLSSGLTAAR
T3 sequence (P49760 whole entry): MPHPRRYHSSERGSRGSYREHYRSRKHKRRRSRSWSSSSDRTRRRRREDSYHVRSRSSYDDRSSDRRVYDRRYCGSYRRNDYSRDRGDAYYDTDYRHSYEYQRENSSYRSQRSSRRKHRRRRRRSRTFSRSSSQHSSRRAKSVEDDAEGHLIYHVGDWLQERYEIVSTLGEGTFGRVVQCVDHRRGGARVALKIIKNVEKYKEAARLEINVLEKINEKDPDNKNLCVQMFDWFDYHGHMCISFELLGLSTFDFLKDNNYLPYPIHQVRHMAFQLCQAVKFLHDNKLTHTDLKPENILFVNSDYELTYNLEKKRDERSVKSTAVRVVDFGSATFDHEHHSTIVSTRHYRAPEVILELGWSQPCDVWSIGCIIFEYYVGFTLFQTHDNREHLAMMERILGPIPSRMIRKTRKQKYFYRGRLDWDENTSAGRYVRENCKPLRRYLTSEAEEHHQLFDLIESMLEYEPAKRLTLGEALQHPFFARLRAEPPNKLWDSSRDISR

As to `N#CCc1cc(CNCCCCOC2CN(c3cc(-c4ccnnc4)cc4[nH]ncc34)C2)cc(C(F)(F)F)c1` [Example 114, 2-(3-(((4-((1-(6-(pyridazin-4-yl)-1H-indazol-4-yl)azetidin-3-yl)oxy)butyl)amino)methyl)-5-(trifluoromethyl)phenyl)acetonitrile], the results for the IC50 in assay [1], in assay [2] and in assay [3] were 2520 nM, 50.5 nM and 2150 nM, respectively.

Take `N#CCc1cc(CNCCCCOCCNc2cc(-n3cnnc3)cc3[nH]nnc23)cc(OC(F)(F)F)c1` [Example 141, 2-(3-(((4-(2-((6-(4H-1,2,4-triazol-4-yl)-1H-benzo[d][1,2,3]triazol-4-yl)amino)ethoxy)butyl)amino)methyl)-5-(trifluoromethoxy)phenyl)acetonitrile]: the IC50 in assay [1] amounted to 2060 nM; in assay [2], 2.77 nM; in assay [3], 17800 nM.

As for `FC(F)(F)Oc1ccc(CNCCCOCCCOc2cc(-n3cnnc3)cc3[nH]ncc23)cc1Cl` [Example 69, 3-(3-((6-(4H-1,2,4-triazol-4-yl)-1H-indazol-4-yl)oxy)propoxy)-N-(3-chloro-4-(trifluoromethoxy)benzyl)propan-1-amine], the IC50 in assay [1] amounted to 2850 nM; in assay [2] it was 46.6 nM; in assay [3] it was 688 nM.

Take `Cc1nc(-c2cc(NCCCNC(=O)CCNCc3ccc(-c4ccccc4)c(Cl)c3)c3cn[nH]c3c2)c[nH]1` [Example 9, 3-(((2-chloro-[1,1′-biphenyl]-4-yl)methyl)amino)-N-(3-((6-(2-methyl-1H-imidazol-4-yl)-1H-indazol-4-yl)amino)propyl)propanamide]: the IC50 in assay [1] turned out to be 8550 nM; in assay [2] it was 7.69 nM; in assay [3], 568 nM.

Consider `FC(F)(F)Oc1ccc(CNCCCCOCCNc2cc(-n3cnnc3)cc3[nH]nnc23)cc1Cl` [Example 126, N-(2-(4-((3-chloro-4-(trifluoromethoxy)benzyl)amino)butoxy)ethyl)-6-(4H-1,2,4-triazol-4-yl)-1H-benzo[d][1,2,3]triazol-4-amine], for which the IC50 was 3630 nM in assay [1], 11.1 nM in assay [2] and 18100 nM in assay [3].

With `c1cc2[nH]c(CNCCCCOCCOc3cc(-c4cnoc4)cc4[nH]ncc34)cc2cc1OC1CCC1` [Example 54, N-((5-cyclobutoxy-1H-indol-2-yl)methyl)-4-(2-((6-(isoxazol-4-yl)-1H-indazol-4-yl)oxy)ethoxy)butan-1-amine], the values for the IC50 in assay [1], in assay [2] and in assay [3] were 128 nM, 1.44 nM and 217 nM, respectively.

In the case of `Cc1[nH]ncc1-c1cc(NCCCNC(=O)CCNCc2ccc(OC(F)(F)F)c(Cl)c2)c2cn[nH]c2c1` [Example 159, 3-((3-chloro-4-(trifluoromethoxy)benzyl)amino)-N-(3-((6-(5-methyl-1H-pyrazol-4-yl)-1H-indazol-4-yl)amino)propyl)propanamide], the IC50 is 703 nM in assay [1], 1.93 nM in assay [2] and 64.3 nM in assay [3].

For the compound `Cc1cc(-c2cc(NCCCNC(=O)CCNCc3ccc(-c4ccccc4)c(Cl)c3)c3cn[nH]c3c2)ccn1` [Example 21, 3-(((2-Chloro-[1,1′-biphenyl]-4-yl)methyl)amino)-N-(3-((6-(2-methylpyridin-4-yl)-1H-indazol-4-yl)amino)propyl)propanamide], the values for the IC50 in assay [1], in assay [2] and in assay [3] were 346 nM, 2.93 nM and 446 nM, respectively.

Turning to `O=C(CCNCc1ccc(OC(F)(F)F)c(Cl)c1)NCCCNc1cc(-n2ccnn2)cc2[nH]ncc12` [Example 161, N-(3-((6-(1H-1,2,3-triazol-1-yl)-1H-indazol-4-yl)amino)propyl)-3-((3-chloro-4-(trifluoromethoxy)benzyl)amino)propanamide], the IC50 was 193 nM in assay [1], 2.02 nM in assay [2] and 667 nM in assay [3].

For the compound `FC(F)(F)c1ccc2[nH]c(CNCCCCOCCNc3cc(-c4cnoc4)cc4[nH]nnc34)cc2c1` [Example 143, 6-(isoxazol-4-yl)-N-(2-(4-(((5-(trifluoromethyl)-1H-indol-2-yl)methyl)amino)butoxy)ethyl)-1H-benzo[d][1,2,3]triazol-4-amine], the IC50 was 564 nM in assay [1], 7.01 nM in assay [2] and 625 nM in assay [3].

As for `COc1cc(-c2cc(NCCOCCCCNCc3cc4cc(C(F)(F)F)ccc4[nH]3)c3cn[nH]c3c2)ccn1` [Example 87, 6-(2-methoxypyridin-4-yl)-N-(2-(4-(((5-(trifluoromethyl)-1H-indol-2-yl)methyl)amino)butoxy)ethyl)-1H-indazol-4-amine], the values for the IC50 in assay [1], in assay [2] and in assay [3] were 1300 nM, 12.3 nM and 1760 nM, respectively.

In the case of `CN(CCCCNCc1ccc(OC(F)(F)F)c(Cl)c1)CCNc1cc(-n2cnnc2)cc2[nH]ncc12` [Example 72, N1-(2-((6-(4H-1,2,4-triazol-4-yl)-1H-indazol-4-yl)amino)ethyl)-N4-(3-chloro-4-(trifluoromethoxy)benzyl)-N1-methylbutane-1,4-diamine], the values for the IC50 in assay [1], in assay [2] and in assay [3] were 294 nM, 0.7 nM and 431 nM, respectively.

As to `N#CCc1cc(CNCCCCOC2CN(c3cc(-c4ccnnc4)cc4[nH]ncc34)C2)cc(OC(F)(F)F)c1` [Example 134, 2-(3-(((4-((1-(6-(pyridazin-4-yl)-1H-indazol-4-yl)azetidin-3-yl)oxy)butyl)amino)methyl)-5-(trifluoromethoxy)phenyl)acetonitrile], the IC50 stood at 809 nM in assay [1], 5.25 nM in assay [2] and 2680 nM in assay [3].

With `N#CCc1cc(CNCCCCOC2CN(c3cc(-c4cnoc4)cc4[nH]ncc34)C2)cc(C(F)(F)F)c1` [Example 145, 2-(3-(((4-((1-(6-(isoxazol-4-yl)-1H-indazol-4-yl)azetidin-3-yl)oxy)butyl)amino)methyl)-5-(trifluoromethyl)phenyl)acetonitrile], the IC50 in assay [1] was 1730 nM; in assay [2], 25.4 nM; in assay [3] it was 186 nM.

`O=C(CCNCc1ccc(-c2ccccc2)c(Cl)c1)NCCCNc1cc(C2CCOC2)cc2[nH]ncc12` (stereo not drawn) [Example 82, 3-(((2-chloro-[1,1′-biphenyl]-4-yl)methyl)amino)-N-(3-((6-(tetrahydrofuran-3-yl)-1H-indazol-4-yl)amino)propyl)propanamide]: the IC50 in assay [1] was found to be 2120 nM; in assay [2] it was 23.3 nM; in assay [3], 1870 nM.

Source of the values: patent US20260085062A1, “NOVEL COMPOUNDS AS CK2 INHIBITORS” (Cambridge Enterprise Limited, priority 2022, published 2026).
